Patent publication US4812465A, “Triazole derivatives for use as antimycotic agents” (CL Pharma Aktiengesellschaft, priority 1986, dated 1989)
In brackets after ≈: the same amount, converted by molar mass.

Assays:
Assay in all cases: In vitro determination of minimum inhibitory concentration (MIC), serial dilution
Assay type in all cases: cell-based
[1] = test system: Trichophyton mentagrophytes; conditions: 336 h, pH 6, Trichophyton mentagrophytes, pH 6.0, 22° C., 14 days
Description: (§1) The antimycotic activities of the compounds were measured by in vitro determination of the minimum inhibitory concentration (MIC) for yeasts, molds and dermatophytes.
(§2) 6 dermatophytes, 2 yeasts and 4 molds were used for testing with fungi, as follows:
(§3) The minimum inhibitory concentration (MIC) was determined in serial dilution tests in test tubes. The volume of the liquid nutrient medium in each test tube was 4.5 ml.
(§4) The substances were dissolved in DMSO and diluted with sterile distilled water to 10 concentrations (100, 50, 25, 12.5, 6.25, 3.12, 1.56, 0.78, 0.39 and 0.19 μg/ml). 0.5 ml of each of these dilution steps was added to liquid nutrient medium. Thus, a constant concentration of solvent in all the nutrient media was ensured, irrespective of the active compound concentration.
(§5) A comparison solution which contained only the solvent in appropriate concentration was included when carrying out each of the tests.
(§6) The individual strains were maintained on Sabouraud/beerwort agar slants and, before they were used in a test, they underwent a passage on a modified Sabouraud liquid nutrient medium. The strains were then harvested, washed and converted into a suspension of McFaerland 3 in the case of yeasts and molds and of McFaerland 4-5 in the case of dermatophytes.
(§7) The amount of material inoculated (inoculum) was 100 μl/test tube (inoculated densities: yeasts about 10^3 /ml, molds about 10^4 /ml, dermatophytes about 10^4 /ml). The pH of the liquid nutrient medium was 6.0. After inoculation had taken place the fungi were incubated at 22° C. for 14 days.
(§8) The MIC was then determined. The concentration step at which growth was no longer visible on macroscopic inspection was used for the determination of the MIC. The comparison substance used was 1-(2-(2,4-dichlorophenyl)-2-(2,4-dichlorophenylmethoxy)ethyl)-1H-imidazole(compound A).

Microsporum canis = conditions: 336 h, pH 6, Microsporum canis, pH 6.0, 22° C., 14 days
Description: as §1, §2, §3, §4, §5, §6, §7, §8

Absidia ramosa = conditions: Lichtheimia ramosa, 336 h, pH 6, Absidia ramosa; pH 6.0, 22° C., 14 days
Description: as §1, §2, §3, §4, §5, §6, §7, §8

Aspergillus fumigatus = conditions: 20160 min, pH 6
Description: as §1, §2, §3, §4, §5, §6, §7, §8

Trichophyton rubrum = conditions: 336 h, pH 6, Trichophyton rubrum, pH 6.0, 22° C., 14 days
Description: as §1, §2, §3, §4, §5, §6, §7, §8

Candida tropicalis = conditions: 336 h, pH 6, Candida tropicalis, pH 6.0, 22° C., 14 days, read-out: MIC C.trop
Description: as §1, §2, §3, §4, §5, §6, §7, §8

Trichophyton verrucosum = conditions: 336 h, pH 6, Trichophyton verrucosum, pH 6.0, 22° C., 14 days
Description: as §1, §2, §3, §4, §5, §6, §7, §8

Candida albicans = conditions: 336 h, pH 6, Candida albicans, pH 6.0, 22° C., 14 days, read-out: MIC C.alb
Description: as §1, §2, §3, §4, §5, §6, §7, §8

Microsporum gypseum = conditions: Nannizzia gypsea, 336 h, pH 6, Microsporum gypseum; pH 6.0, 22° C., 14 days; read-out: MIC Mi.gyp
Description: as §1, §2, §3, §4, §5, §6, §7, §8

Epidermophyton floccosum = conditions: 336 h, pH 6, Epidermophyton floccosum, pH 6.0, 22° C., 14 days
Description: as §1, §2, §3, §4, §5, §6, §7, §8

Mucor mucedo plus = conditions: Mucor mucedo, 336 h, pH 6, Mucor mucedo plus; pH 6.0, 22° C., 14 days
Description: as §1, §2, §3, §4, §5, §6, §7, §8

Mucor mucedo minus = conditions: Mucor mucedo, 336 h, pH 6, Mucor mucedo minus; pH 6.0, 22° C., 14 days
Description: as §1, §2, §3, §4, §5, §6, §7, §8

Work on COc1ccc(SCCNC(Cn2ccnc2)c2ccc(Cl)cc2Cl)cc1 (stereo not drawn) [Compound 39] yielded an MIC [1] of 6.25 µg/mL (≈ 14.8 µM), an MIC (Microsporum canis) of 12.5 µg/mL (≈ 29.6 µM) and an MIC (Absidia ramosa) of 25 µg/mL (≈ 59.2 µM). For the same compound, the “MIC Asp.fu.” value (Aspergillus fumigatus) was 12,5 μg/ml, the MIC (Trichophyton rubrum) was 6.25 µg/mL (≈ 14.8 µM) and the MIC (Candida tropicalis) was 12.5 µg/mL (≈ 29.6 µM). The MIC (Trichophyton verrucosum) was 6.25 µg/mL (≈ 14.8 µM), the MIC (Candida albicans) was 25 µg/mL (≈ 59.2 µM) and the MIC (Microsporum gypseum) was 6.25 µg/mL (≈ 14.8 µM). The MIC (Epidermophyton floccosum) was 12.5 µg/mL (≈ 29.6 µM), the MIC (Mucor mucedo plus) was 12.5 µg/mL and the MIC (Mucor mucedo minus) was 12.5 µg/mL (≈ 29.6 µM).

Clc1ccc(OCCNC(Cn2cncn2)c2ccc(Cl)cc2Cl)cc1 (stereo not drawn) [Compound 14] gave an MIC [1] of 12.5 µg/mL (≈ 30.4 µM), an MIC (Microsporum canis) of 12.5 µg/mL (≈ 30.4 µM) and an MIC (Absidia ramosa) of 100 µg/mL (≈ 243 µM). The “MIC Asp.fu.” value (Aspergillus fumigatus) was 100 µg/mL (≈ 243 µM), the MIC (Trichophyton rubrum) was 6.25 µg/mL (≈ 15.2 µM) and the MIC (Candida tropicalis) was 12.5 µg/mL (≈ 30.4 µM). For the same compound, the MIC (Trichophyton verrucosum) was 12.5 µg/mL (≈ 30.4 µM), the MIC (Candida albicans) was 12.5 µg/mL (≈ 30.4 µM) and the MIC (Microsporum gypseum) was 6.25 µg/mL (≈ 15.2 µM). It also gave an MIC (Epidermophyton floccosum) of 3.12 µg/mL (≈ 7.58 µM), an MIC (Mucor mucedo plus) of 12.5 µg/mL and an MIC (Mucor mucedo minus) of 6.25 µg/mL (≈ 15.2 µM).

Clc1ccc(OCCCCNC(Cn2cncn2)c2ccc(Cl)cc2Cl)cc1 (stereo not drawn) [Compound 126] was tested, and the MIC [1] was 50 µg/mL (≈ 114 µM), the MIC (Microsporum canis) was 25 µg/mL (≈ 56.8 µM) and the MIC (Absidia ramosa) was 100 µg/mL (≈ 227 µM). The “MIC Asp.fu.” value (Aspergillus fumigatus) was 25,0 μg/ml, the MIC (Trichophyton rubrum) was 6.25 µg/mL (≈ 14.2 µM) and the MIC (Candida tropicalis) was 12.5 µg/mL (≈ 28.4 µM). For the same compound, the MIC (Trichophyton verrucosum) was 3.12 µg/mL (≈ 7.09 µM), the MIC (Candida albicans) was 25 µg/mL (≈ 56.8 µM) and the MIC (Microsporum gypseum) was 3.12 µg/mL (≈ 7.09 µM). The MIC (Epidermophyton floccosum) was 12.5 µg/mL (≈ 28.4 µM), the MIC (Mucor mucedo plus) was 12.5 µg/mL and the MIC (Mucor mucedo minus) was 25 µg/mL (≈ 56.8 µM).

In the case of Clc1ccc(C(Cn2cncn2)NCCSc2ccc(Br)cc2)c(Cl)c1 (stereo not drawn) [Compound 36], the MIC [1] is reported as 25 µg/mL (≈ 52.9 µM), the MIC (Microsporum canis) is reported as 100 µg/mL (≈ 212 µM) and the MIC (Absidia ramosa) is reported as 100 µg/mL (≈ 212 µM). The “MIC Asp.fu.” value (Aspergillus fumigatus) was 100 µg/mL (≈ 212 µM), the MIC (Trichophyton rubrum) was 6.25 µg/mL (≈ 13.2 µM) and the MIC (Candida tropicalis) was 12.5 µg/mL (≈ 26.5 µM). For the same compound, the MIC (Trichophyton verrucosum) was 12.5 µg/mL (≈ 26.5 µM), the MIC (Candida albicans) was 25 µg/mL (≈ 52.9 µM) and the MIC (Microsporum gypseum) was 6.25 µg/mL (≈ 13.2 µM). It also gave an MIC (Epidermophyton floccosum) of 12.5 µg/mL (≈ 26.5 µM), an MIC (Mucor mucedo plus) of 12.5 µg/mL and an MIC (Mucor mucedo minus) of 50 µg/mL (≈ 106 µM).

Compound CN(CCCOc1ccc(I)cc1)C(Cn1ccnc1)c1ccc(Cl)cc1Cl (stereo not drawn) [Compound 65] has an MIC [1] of 6.25 µg/mL (≈ 11.8 µM), an MIC (Microsporum canis) of 1.56 µg/mL (≈ 2.94 µM) and an MIC (Absidia ramosa) of 3.12 µg/mL (≈ 5.88 µM). For the same compound, the “MIC Asp.fu.” value (Aspergillus fumigatus) was 3,12 μg/ml, the MIC (Trichophyton rubrum) was 0.78 µg/mL (≈ 1.47 µM) and the MIC (Candida tropicalis) was 1.56 µg/mL (≈ 2.94 µM). It also gave an MIC (Trichophyton verrucosum) of 1.56 µg/mL (≈ 2.94 µM), an MIC (Candida albicans) of 3.12 µg/mL (≈ 5.88 µM) and an MIC (Microsporum gypseum) of 3.12 µg/mL (≈ 5.88 µM). It also gave an MIC (Epidermophyton floccosum) of 3.12 µg/mL (≈ 5.88 µM), an MIC (Mucor mucedo plus) of 6.25 µg/mL and an MIC (Mucor mucedo minus) of 6.25 µg/mL (≈ 11.8 µM).

With Clc1ccc(C(Cn2ccnc2)NCCCSc2c(Cl)cccc2Cl)c(Cl)c1 (stereo not drawn) [Compound 112] the MIC [1] was 3.12 µg/mL (≈ 6.56 µM), the MIC (Microsporum canis) was 12.5 µg/mL (≈ 26.3 µM) and the MIC (Absidia ramosa) was 12.5 µg/mL (≈ 26.3 µM). For the same compound, the “MIC Asp.fu.” value (Aspergillus fumigatus) was 12,5 μg/ml, the MIC (Trichophyton rubrum) was 3.12 µg/mL (≈ 6.56 µM) and the MIC (Candida tropicalis) was 6.25 µg/mL (≈ 13.2 µM). For the same compound, the MIC (Trichophyton verrucosum) was 3.12 µg/mL (≈ 6.56 µM), the MIC (Candida albicans) was 6.25 µg/mL (≈ 13.2 µM) and the MIC (Microsporum gypseum) was 3.12 µg/mL (≈ 6.56 µM). The MIC (Epidermophyton floccosum) was 3.12 µg/mL (≈ 6.56 µM), the MIC (Mucor mucedo plus) was 6.25 µg/mL and the MIC (Mucor mucedo minus) was 12.5 µg/mL (≈ 26.3 µM).

In the case of Clc1ccc(SCCCNC(Cn2cncn2)c2ccc(Cl)cc2)cc1 (stereo not drawn) [Compound 99], the MIC [1] is reported as 6.25 µg/mL (≈ 15.3 µM), the MIC (Microsporum canis) is reported as 12.5 µg/mL (≈ 30.7 µM) and the MIC (Absidia ramosa) is reported as 100 µg/mL (≈ 245 µM). The “MIC Asp.fu.” value (Aspergillus fumigatus) was 100 µg/mL (≈ 245 µM), the MIC (Trichophyton rubrum) was 3.12 µg/mL (≈ 7.66 µM) and the MIC (Candida tropicalis) was 12.5 µg/mL (≈ 30.7 µM). The MIC (Trichophyton verrucosum) was 3.12 µg/mL (≈ 7.66 µM), the MIC (Candida albicans) was 6.25 µg/mL (≈ 15.3 µM) and the MIC (Microsporum gypseum) was 3.12 µg/mL (≈ 7.66 µM). It also gave an MIC (Epidermophyton floccosum) of 6.25 µg/mL (≈ 15.3 µM), an MIC (Mucor mucedo plus) of 12.5 µg/mL and an MIC (Mucor mucedo minus) of 6.25 µg/mL (≈ 15.3 µM).

Compound Clc1ccc(C(Cn2ccnc2)NCCCSc2ccc3ccccc3c2)c(Cl)c1 (stereo not drawn) [Compound 114] has an MIC [1] of 3.12 µg/mL (≈ 6.84 µM), an MIC (Microsporum canis) of 0.78 µg/mL (≈ 1.71 µM) and an MIC (Absidia ramosa) of 6.25 µg/mL (≈ 13.7 µM). The “MIC Asp.fu.” value (Aspergillus fumigatus) was 0,78 μg/ml, the MIC (Trichophyton rubrum) was 1.56 µg/mL (≈ 3.42 µM) and the MIC (Candida tropicalis) was 6.25 µg/mL (≈ 13.7 µM). For the same compound, the MIC (Trichophyton verrucosum) was 1.56 µg/mL (≈ 3.42 µM), the MIC (Candida albicans) was 3.12 µg/mL (≈ 6.84 µM) and the MIC (Microsporum gypseum) was 3.12 µg/mL (≈ 6.84 µM). For the same compound, the MIC (Epidermophyton floccosum) was 3.12 µg/mL (≈ 6.84 µM), the MIC (Mucor mucedo plus) was 6.25 µg/mL and the MIC (Mucor mucedo minus) was 3.12 µg/mL (≈ 6.84 µM).

With Clc1ccc(SCCCCCNC(Cn2ccnc2)c2ccc(Cl)cc2Cl)cc1 (stereo not drawn) [Compound 132] the MIC [1] was 0.78 µg/mL (≈ 1.66 µM), the MIC (Microsporum canis) was 12.5 µg/mL (≈ 26.7 µM) and the MIC (Absidia ramosa) was 6.25 µg/mL (≈ 13.3 µM). The “MIC Asp.fu.” value (Aspergillus fumigatus) was 6,25 μg/ml, the MIC (Trichophyton rubrum) was 3.12 µg/mL (≈ 6.65 µM) and the MIC (Candida tropicalis) was 3.12 µg/mL (≈ 6.65 µM). The MIC (Trichophyton verrucosum) was 6.25 µg/mL (≈ 13.3 µM), the MIC (Candida albicans) was 6.25 µg/mL (≈ 13.3 µM) and the MIC (Microsporum gypseum) was 3.12 µg/mL (≈ 6.65 µM). For the same compound, the MIC (Epidermophyton floccosum) was 0.78 µg/mL (≈ 1.66 µM), the MIC (Mucor mucedo plus) was 0.78 µg/mL and the MIC (Mucor mucedo minus) was 3.12 µg/mL (≈ 6.65 µM).
